Tests used:
Experiment in all cases: Anti-proliferative activity, cell-titre luminescent viability assay
Format in all cases: cell-based
[1] = tested on: A549 lung (NSLC) cancer cells; conditions: Homo sapiens, 72 hours exposure
Method: (§1) The ability of compounds 1001-1018 and 1037-1039 to inhibit the proliferation of cancer cells representative of neuroblastoma, melanoma, prostate cancer, colorectal cancer, non-small cell lung carcinoma, and triple negative breast cancer was assessed (Table 1).
(§2) Briefly, a pre-determined number of cells as calculated from cell growth assays for each of the cell lines employed were seeded into their respective culture medium (using ATCC culture parameters—http://www.atcc.org) and cultured for 24 hours at 37° C. and 5% CO2 in 96-well culture plates. Once attached, each cell line was then exposed to increasing concentrations of each respective analogue (0.03, 0.3, 3 and 30 μM for compounds 1001-13 and 1015-18; 0.1, 0.3, 1, 3, 10 and 30 μM for compounds 1014 and 1037-39), cultured for a further 72 hours and exposed to cell-titre luminescent reagent (100 μL/well) for a further 30 minutes) to measure cell viability. Luminescence was captured using an EnVision multilabel reader and the data for each analogue concentration compared against no treatment control. For compounds 1001-13 and 1015-18, semi-log plots of Percent of Control versus concentration were prepared and IC50 determined using linear regression analysis. For compounds 1014 and 1037-39, cell viability was normalized to control (vehicle alone) and dose-response curves, and half maximal effective concentration (EC50) values were determined using Graph Pad Prism 6 (nonlinear regression sigmoidal dose-response variable slope).

[2] = tested on: CaCo2 colorectal cancer cells; conditions: Homo sapiens, Caco-2, 72 hours exposure
Method: as §1, §2

[3] = tested on: DU145 prostate cancer cells; conditions: Homo sapiens, DU-145, 72 hours exposure
Method: as §1, §2

[4] = tested on: MDA-MB-231 breast cancer cells; conditions: Homo sapiens, 72 hours exposure
Method: as §1, §2

[5] = tested on: PC3 prostate cancer cells; conditions: 72 hours exposure
Method: as §1, §2

SK-Mel-28 melanoma cells = conditions: Homo sapiens, 72 hours exposure
Method: as §1, §2

[6] = tested on: SK-N-SH neuroblastoma cells; conditions: Homo sapiens, 72 hours exposure
Method: as §1, §2

COc1cccc(CCN2CCN(C(=O)c3ccc4c(c3)c3ccccc3n4CCCN(C)C)CC2)c1 [Compound 1006, (9-(3-(dimethylamino)propyl)-9H-carbazol-3-yl)(4-(3-methoxyphenethyl)piperazin-1-yl)methanone]
IC50 [1]: 3.5 µM | IC50 [2]: 4.1 µM | IC50 [3]: 4.4 µM | IC50 [4]: 3 µM | IC50 [5]: 5.2 µM | IC50 (SK-Mel-28 melanoma cells): 3.5 µM | IC50 [6]: 3.4 µM

CN(C)CCCn1c2ccccc2c2cc(C(=O)N3CCN(CCc4ccc(F)cc4)CC3)ccc21 [Compound 1002, (9-(3-(dimethylamino)propyl)-9H-carbazol-3-yl)(4-(4-fluorophenethyl)piperazin-1-yl)methanone]
IC50 [1]: 3.4 µM | IC50 [2]: 3.7 µM | IC50 [3]: 3.7 µM | IC50 [4]: 4.5 µM | IC50 [5]: 6.1 µM | IC50 (SK-Mel-28 melanoma cells): 3.7 µM | IC50 [6]: 3.4 µM

CCN(CC)CCCn1c2ccccc2c2cc(C(=O)N3CCN(CCc4ccccc4)CC3)ccc21 [Compound 1012, (9-(3-(diethylamino)propyl)-9H-carbazol-3-yl)(4-phenethylpiperazin-1-yl)methanone]
IC50 [1]: 3.2 µM | IC50 [2]: 2.8 µM | IC50 [3]: 3.5 µM | IC50 [4]: 3.1 µM | IC50 [5]: 4.1 µM | IC50 (SK-Mel-28 melanoma cells): 2.8 µM | IC50 [6]: 2.9 µM

CCN(CC)CCCn1c2ccccc2c2cc(C(=O)N3CCN(CCc4cccc(F)c4)CC3)ccc21 [Compound 1010, (9-(3-(diethylamino)propyl)-9H-carbazol-3-yl)(4-(3-fluorophenethyl)piperazin-1-yl)methanone]
IC50 [1]: 3.6 µM | IC50 [2]: 4.1 µM | IC50 [3]: 3.7 µM | IC50 [4]: 4.2 µM | IC50 [5]: 3.7 µM | IC50 (SK-Mel-28 melanoma cells): 3.9 µM | IC50 [6]: 3.3 µM

CN(C)CCCn1c2ccccc2c2cc(C(=O)N3CCN(CCc4cccc(F)c4)CC3)ccc21 [Compound 1005, (9-(3-(dimethylamino)propyl)-9H-carbazol-3-yl)(4-(3-fluorophenethyl)piperazin-1-yl)methanone]
IC50 [1]: 3.5 µM | IC50 [2]: 3.8 µM | IC50 [3]: 3.2 µM | IC50 [4]: 4.1 µM | IC50 [5]: 3.3 µM | IC50 (SK-Mel-28 melanoma cells): 3.5 µM | IC50 [6]: 3.3 µM

O=C(c1ccc2c(c1)c1ccccc1n2CCCCl)N1CCN(CCc2ccc(F)cc2)CC1 [Compound 1038, (9-(3-chloropropyl)-9H-carbazol-3-yl)(4-(4-fluorophenethyl)piperazin-1-yl)methanone]
IC50 [1]: > 30 µM | IC50 [2]: > 30 µM | IC50 [3]: > 30 µM | IC50 [4]: > 30 µM | IC50 [5]: > 30 µM | IC50 (SK-Mel-28 melanoma cells): > 30 µM | IC50 [6]: > 30 µM

CCN(CC)CCCn1c2ccccc2c2cc(C(=O)N3CCN(CCc4cccc(OC)c4)CC3)ccc21 [Compound 1011, (9-(3-(diethylamino)propyl)-9H-carbazol-3-yl)(4-(3-methoxyphenethyl)piperazin-1-yl)methanone]
IC50 [1]: 3.8 µM | IC50 [2]: 4 µM | IC50 [3]: 4.5 µM | IC50 [4]: 2.5 µM | IC50 [5]: 5.5 µM | IC50 (SK-Mel-28 melanoma cells): 3.4 µM | IC50 [6]: 4.2 µM

COc1ccc(CCN2CCN(C(=O)c3ccc4c(c3)c3ccccc3n4CCCN(C)C)CC2)cc1 [Compound 1003, (9-(3-(dimethylamino)propyl)-9H-carbazol-3-yl)(4-(4-methoxyphenethyl)piperazin-1-yl)methanone]
IC50 [1]: 3.4 µM | IC50 [2]: 3.7 µM | IC50 [3]: 3.6 µM | IC50 [4]: 4.3 µM | IC50 [5]: 3.1 µM | IC50 (SK-Mel-28 melanoma cells): 3.2 µM | IC50 [6]: 3.1 µM

CCN(CC)CCCn1c2ccccc2c2cc(C(=O)N3CCN(CCc4ccc(OC)cc4)CC3)ccc21 [Compound 1008, (9-(3-(diethylamino)propyl)-9H-carbazol-3-yl)(4-(4-methoxyphenethyl)piperazin-1-yl)methanone]
IC50 [1]: 3.8 µM | IC50 [2]: 6.7 µM | IC50 [3]: 4 µM | IC50 [4]: 3.5 µM | IC50 [5]: 4.8 µM | IC50 (SK-Mel-28 melanoma cells): 2.5 µM | IC50 [6]: 3.3 µM

O=C(c1ccc2c(c1)c1ccccc1n2CCc1ccc(F)cc1)N1CCN(CCc2ccc(F)cc2)CC1 [Compound 1039, (9-(4-fluorophenethyl)-9H-carbazol-3-yl)(4-(4-fluorophenethyl)piperazin-1-yl)methanone]
IC50 [1]: > 30 µM | IC50 [2]: > 30 µM | IC50 [3]: > 30 µM | IC50 [4]: > 30 µM | IC50 [5]: > 30 µM | IC50 (SK-Mel-28 melanoma cells): > 30 µM | IC50 [6]: > 30 µM

COc1ccc(CCN2CCN(C(=O)c3ccc4c(c3)c3ccccc3n4CCCN3CCN(C)CC3)CC2)cc1 [Compound 1014, (4-(4-methoxyphenethyl)piperazin-1-yl)(9-(3-(4-methylpiperazin-1-yl)propyl)-9H-carbazol-3-yl)methanone]
IC50 [1]: 31.1 µM | IC50 [2]: 13.8 µM | IC50 [3]: 40.2 µM | IC50 [4]: 10.2 µM | IC50 [5]: 3.8 µM | IC50 (SK-Mel-28 melanoma cells): 5.1 µM | IC50 [6]: 8.8 µM

CN1CCN(CCCn2c3ccccc3c3cc(C(=O)N4CCN(CCc5ccc6c(c5)OCO6)CC4)ccc32)CC1 [Compound 1015, (4-(2-(benzo[d][1,3]dioxol-5-yl)ethyl)piperazin-1-yl)(9-(3-(4-methylpiperazin-1-yl)propyl)-9H-carbazol-3-yl)methanone]
IC50 [1]: 4 µM | IC50 [2]: 5.5 µM | IC50 [3]: 15.5 µM | IC50 [4]: 4.4 µM | IC50 [5]: 5.3 µM | IC50 (SK-Mel-28 melanoma cells): 3.4 µM | IC50 [6]: 5.1 µM

O=C(c1ccc2[nH]c3ccccc3c2c1)N1CCN(CCc2ccc(F)cc2)CC1 [Compound 1037, (9H-carbazol-3-yl)(4-(4-fluorophenethyl)piperazin-1-yl)methanone]
IC50 [1]: 16.3 µM | IC50 [2]: > 30 µM | IC50 [3]: > 30 µM | IC50 [4]: > 30 µM | IC50 [5]: > 30 µM | IC50 (SK-Mel-28 melanoma cells): > 30 µM | IC50 [6]: > 30 µM

CCN(CC)CCCn1c2ccccc2c2cc(C(=O)N3CCN(CCc4ccc5c(c4)OCO5)CC3)ccc21 [Compound 1009, (4-(2-(benzo[d][1,3]dioxol-5-yl)ethyl)piperazin-1-yl)(9-(3-(diethylamino)propyl)-9H-carbazol-3-yl)methanone]
IC50 [1]: 4 µM | IC50 [2]: 5 µM | IC50 [3]: 12.1 µM | IC50 [4]: 4.5 µM | IC50 [5]: 4.6 µM | IC50 (SK-Mel-28 melanoma cells): 4.1 µM | IC50 [6]: 4.8 µM

COc1cccc(CCN2CCN(C(=O)c3ccc4c(c3)c3ccccc3n4CCCN3CCN(C)CC3)CC2)c1 [Compound 1017, (4-(3-methoxyphenethyl)piperazin-1-yl)(9-(3-(4-methylpiperazin-1-yl)propyl)-9H-carbazol-3-yl)methanone]
IC50 [1]: 3.6 µM | IC50 [2]: 4.6 µM | IC50 [3]: 6.6 µM | IC50 [4]: 3.7 µM | IC50 [5]: 5.2 µM | IC50 (SK-Mel-28 melanoma cells): 4 µM | IC50 [6]: 4.7 µM

— patent US20170158636A1, “FUNCTIONALISED AND SUBSTITUTED CARBAZOLES AS ANTI-CANCER AGENTS” (Novogen Ltd., priority 2014, published 2017)
